Assay results: patent US20210352895A1, “SYNERGISTIC PESTICIDAL COMPOSITIONS AND METHODS FOR DELIVERY OF ACTIVE INGREDIENTS” (0903608 B.C. Ltd., priority 2018, published 2021)
Like-named read-outs stand apart in the source and are kept apart here.

Columns and labels:
Trichoplusia ni = assay: In-vitro insecticidal efficacy of Entrust SC (spinosad) with saturated and unsaturated aliphatic acids on artificial diet, Abbott and Colby formulae; assay type: in vivo, Trichoplusia ni (cabbage looper); settings: Entrust SC 0.034 ppm ([…] spinosad); aliphatic acid (salt) 500 ppm; Abbott-corrected
Description: An artificial diet suitable for Trichoplusia ni (cabbage looper caterpillar) was prepared from a commercially available general purpose lepidoptera artificial diet premix (General Purpose Lepidoptera Diet available from Frontier Scientific Services, Newark, Del.) mixed in agar media and then heated to liquify the media. The liquid artificial diet media was then used to fill each well of a 96-well treatment plate with 200 uL of artificial diet media, which was allowed to solidify at room temperature and stored at approximately 4 C.
A 20 uL treatment sample of each treatment formulation was then placed on top of the solidified artificial diet media in each well of the 96 well plates and allowed to dry overnight. The following day, one neonate Trichoplusia ni (cabbage looper) larva (hatched from eggs obtained from the Natural Resource Canada insect research facility in Sault-Ste-Marie, ON, Canada) was added to each well of the plate, and their mortality rate was evaluated after 5 days, to determine the insecticidal efficacy of the Entrust® SC treatment alone, each exemplary unsaturated or saturated aliphatic acid (and salt) alone, and each combination of spinosad (as Entrust® SC) and unsaturated or saturated aliphatic acid (and salt). Each experiment contained 3 replicates.
While for SF<1, antagonism is present and for SF=1, the efficacy of the compounds is merely additive.

Fusarium oxysporum = assay: Synergistic Growth Inhibition Assay (MIC / FIC index, resazurin, 96-well) on Fusarium oxysporum; assay type: cell-based
Description: (§1) In some embodiments, the synergistic action between the pesticidal active ingredient, and the at least one C4-C10 (or alternatively C11 or C12) saturated or unsaturated aliphatic acid components of the pesticidal compositions according to embodiments of the present disclosure was tested using a Synergistic Growth Inhibition Assay, which is derived from and related to a checkerboard assay as is known in the art for testing of combinations of antimicrobial agents. In the Synergistic Growth Inhibition Assay used in accordance with some embodiments of the present disclosure, multiple dilutions of combinations of pesticidal active ingredient and at least one C4-C10 saturated or unsaturated aliphatic acid agents are tested in individual cells for inhibitory activity against a target pest or pathogenic organism. In one such embodiment, the combinations of pesticidal active ingredient and C4-C10 (or alternatively C11 or C12) saturated or unsaturated aliphatic acid agents may preferably be tested in decreasing concentrations. In a further such embodiment, the combinations of pesticidal active ingredient and C4-C10 (or alternatively C11 or C12) saturated or unsaturated aliphatic acid agents may be tested in increasing concentrations. These multiple combinations of the pesticidal active ingredient and at least one C4-C10 (or alternatively C11 or C12) saturated or unsaturated aliphatic acid agents may be prepared in 96-well microtiter plates. In one such embodiment, the Synergistic Growth Inhibition Assay then comprises rows which each contain progressively decreasing concentrations of the pesticidal active ingredient and one or more C4-C10 (or alternatively C11 or C12) saturated or unsaturated aliphatic acid agents to test for the MIC of the agents in combination at which growth of the target pest or pathogen is inhibited. Thus, each well of the microtiter plate is a unique combination of the two agents, at which inhibitory efficacy of the combination against the target pest or pathogen can be determined.
(§2) In one embodiment according to the present disclosure, for each row of microtiter cells in the Synergistic Growth Inhibition Assay, the FIC index is calculated from the lowest concentration of the pesticidal active ingredient and one or more C4-C10 saturated or unsaturated aliphatic acid agents necessary to inhibit growth of a target pest or pathogen. The FIC of each component is derived by dividing the concentration of the agent present in that well of the microtiter plate by the minimal inhibitory concentration (MIC) needed of that agent alone to inhibit growth of the target pest or pathogen. The FIC index is then the sum of these values for both agents in that well of the microtiter plate. The FIC index is calculated for each row as follows:
(§3) FICindex=MICa/MICA+MICb/MICB
(§4) Fractional inhibitory concentration indices may then used as measure of synergy. […] When the FIC index is equal to 1, the combination is additive.
(§5) Then, serial dilutions of these initial compositions in successive wells in the row of the microtiter plate were used to assay the pesticidal composition under the same conditions to determine the concentration of the composition combining the two agents corresponding to the microtiter well in which growth inhibition of the target pest or organism ceases.
Resazurin dye (also known as Alamar blue dye) was used as an indicator to determine the presence of growth or inhibition of growth of Fusarium oxysporum in the wells of the 96 well microtiter plates used in the exemplary Synergistic Growth Inhibition Assay. In addition to the color change of the resazurin dye in the presence of growth of the Fusarium oxysporum, an optical or visual examination of the microtiter well may also be made to additionally determine the presence of growth or inhibition of growth of the Fusarium oxysporum.

Botrytis cinerea = assay: Synergistic Growth Inhibition Assay (MIC / FIC index, resazurin, 96-well) on Botrytis cinerea; assay type: cell-based; settings: Botrytis cinerea
Description: as §1, §2, §3, §4, §5
(§6) Similarly to as described above, Resazurin was used as an indicator of growth or inhibition of growth of Botrytis cinerea in the exemplary Synergistic Growth Inhibition Assay. In addition to the color change of the resazurin, an optical or visual examination of the microtiter well may also be made to additionally determine the presence of growth or inhibition of growth of the Botrytis cinerea.

Sclerotinia sclerotiorum = assay: Synergistic Growth Inhibition Assay (MIC / FIC index, resazurin, 96-well) on Sclerotinia sclerotiorum; assay type: cell-based; settings: for MIC: Sclerotinia sclerotiorum
Description: as §1, §2, §3, §4, §5
as §6, with “Sclerotinia sclerotiorum” for “Botrytis cinerea”, “Sclerotinia sclerotiorum.” for “Botrytis cinerea.”

Alternaria solani = assay: Synergistic Growth Inhibition Assay (MIC / FIC index) on Alternaria solani; assay type: cell-based; settings: for MIC (A): Compound A alone
Description: as §1, §2, §3, §4, §5
Alternatively, other suitable representative pest or pathogen organisms may be used to determine synergy of combinations of pesticidal active ingredient agents and one or more C4-C10 (or alternatively C11 or C12) saturated or unsaturated aliphatic acid agents in accordance with embodiments of the present disclosure. For example, other representative fungal pathogens may be used, such as but not limited to Leptosphaeria maculans, Sclerotinia spp. and Verticillium spp.

[1] = Compound A alone, incubation period of 48 hours
[2] = 24 h, Table 75, Compound B = saturated aliphatic acid, alone or in combination with wintergreen oil, incubation period of 24 hours, read-out: MIC (B)
[3] = 24 h, Table 78, Compound B = saturated aliphatic acid, alone or in combination with oregano oil, incubation period of 24 hours, read-out: MIC (B)
[4] = Fusarium oxysporum, 96 h, Table 58, Compound B = saturated aliphatic acid, alone or in combination with oregano oil, incubation for 4 days, read-out: MIC (B)
[5] = Alternaria solani, Compound B alone, 7 days incubation, read-out: MIC (B)
[6] = Alternaria solani, Compound B alone, Alternaria solani, incubation period of 7 days, read-out: MIC (B)
[7] = Fusarium oxysporum, 48 h, Compound B alone, Fusarium oxysporum, 48 hours incubation, read-out: MIC (B)

Compound: CCCCCCCCCC(=O)O [Decanoic acid, decanoic acid]
- Observed Efficacy, W (%) (Trichoplusia ni): 0%
- MIC (Fusarium oxysporum; Fusarium oxysporum, 24 h, Table 53, Compound B = saturated aliphatic acid, alone or in combination with wintergreen oil, incubation for 24 hours, read-out: MIC (B)): 62.5 µg/mL
- MIC (Fusarium oxysporum; Fusarium oxysporum, 96 h, Compound B alone, incubation for 4 days, read-out: MIC (B)): 62.5 µg/mL

Compound: CO/C=C(/C(=O)OC)c1ccccc1COc1cccc(C(F)(F)F)n1 [Picoxystrobin, reference compound]
- MIC (A) (Botrytis cinerea; [1]): 250 µg/mL
- MIC (A) (Sclerotinia sclerotiorum; Compound A alone, 7 days incubation): 500 µg/mL
- MIC (A) (Alternaria solani; Alternaria solani, incubation period of 7 days): 500 µg/mL

Compound: CCCCCCCCC(=O)O [Nonanoic acid, nonanoic acid]
- MIC (Botrytis cinerea; [2]): 39.1 µg/mL
- MIC (Botrytis cinerea; [3]): 78.1 µg/mL
- Observed Efficacy, W (%) (Trichoplusia ni): 0%
- MIC (Fusarium oxysporum; Fusarium oxysporum, 24 h, read-out: MIC (B), Table 53, Compound B = saturated aliphatic acid, alone or in combination with wintergreen oil, incubation for 24 hours): 156 µg/mL
- MIC (Fusarium oxysporum; [4]): 78.1 µg/mL
- MIC (Fusarium oxysporum; Fusarium oxysporum, 96 h, read-out: MIC (B), Table 55, Compound B = saturated aliphatic acid, alone or in combination with spearmint oil, incubation for 4 days): 156 µg/mL

Compound: CCCCCCC(C)C(=O)O (stereo not shown) [2-methyloctanoic acid]
- MIC (Alternaria solani; [5]): 625 µg/mL
- MIC (Alternaria solani; [6]): 156 µg/mL
- MIC (Fusarium oxysporum; [7]): 156 µg/mL

Compound: CCC/C=C/C(=O)O [Trans-2-hexenoic acid, trans-2-hexenoic acid]
- Observed Efficacy, W (%) (Trichoplusia ni): 0%
- MIC (B) (Fusarium oxysporum; Compound B alone, 24 hour incubation): 312.5 µg/mL

Compound: Mancozeb [reference compound]
- MIC (A) (Botrytis cinerea; [1]): 31.25 µg/mL
- MIC (A) (Alternaria solani; 7 days incubation): 500 µg/mL

Compound: CCCCCCC/C=C/C(=O)O [Trans-2 decenoic acid]
- MIC (B) (Botrytis cinerea; Compound B alone, incubation period of 48 hours): 39.06 µg/mL
- Observed Efficacy, W (%) (Trichoplusia ni): 0%

Compound: CCCCC(CC)C(=O)O (stereo not shown) [2-ethylhexanoic acid]
- MIC (Botrytis cinerea; 48 h, Compound B alone, 48 hours incubation, read-out: MIC (B)): 312 µg/mL
- MIC (Botrytis cinerea; 48 h, Compound B alone, incubation period of 48 hours, read-out: MIC (B)): 312 µg/mL
- MIC (Sclerotinia sclerotiorum; Compound B alone, incubation period of 7 days, read-out: MIC (B)): 625 µg/mL
- MIC (Alternaria solani; [5]): 312 µg/mL

Compound: CCCCCCC(=O)O [Heptanoic acid, heptanoic acid]
- MIC (Botrytis cinerea; [2]): 39.1 µg/mL
- MIC (Botrytis cinerea; [3]): 78.1 µg/mL
- MIC (Botrytis cinerea; 96 h, Table 76, Compound B = saturated aliphatic acid, alone or in combination with spearmint oil, incubation period of 4 days, read-out: MIC (B)): 78.1 µg/mL
- MIC (Sclerotinia sclerotiorum; Table 68, Compound B = saturated aliphatic acid, alone or in combination with clove leaf oil, incubation period of 7 days, read-out: MIC (B)): 78.1 µg/mL
- MIC (Sclerotinia sclerotiorum; Table 70, Compound B = saturated aliphatic acid, alone or in combination with rosemary oil, incubation period of 7 days, read-out: MIC (B)): 78.1 µg/mL
- Observed Efficacy, W (%) (Trichoplusia ni): 9.1%
- MIC (Fusarium oxysporum; Fusarium oxysporum, 96 h, Table 54, Compound B = saturated aliphatic acid, alone or in combination with peppermint oil, incubation for 4 days, read-out: MIC (B)): 312 µg/mL
- MIC (Fusarium oxysporum; Fusarium oxysporum, 96 h, Table 55, Compound B = saturated aliphatic acid, alone or in combination with spearmint oil, incubation for 4 days, read-out: MIC (B)): 156 µg/mL
- MIC (Fusarium oxysporum; [4]): 78.1 µg/mL

Compound: CCCCCCCCC(C)C(=O)O (stereo not shown) [2-methyldecanoic acid]
- MIC (Botrytis cinerea; 48 h, Compound A alone, incubation period of 48 hours, read-out: MIC (A)): 15.6 µg/mL
- MIC (Alternaria solani; [5]): 1000 µg/mL
- MIC (Alternaria solani; [6]): 125 µg/mL
- MIC (Fusarium oxysporum; [7]): 62.5 µg/mL

Compound: CCCCCC(=O)O [Hexanoic acid, hexanoic acid]
- MIC (Botrytis cinerea; 24 h, read-out: MIC (B), Table 75, Compound B = saturated aliphatic acid, alone or in combination with wintergreen oil, incubation period of 24 hours): 39.1 µg/mL
- MIC (Botrytis cinerea; 24 h, read-out: MIC (B), Table 78, Compound B = saturated aliphatic acid, alone or in combination with oregano oil, incubation period of 24 hours): 156 µg/mL
- MIC (Botrytis cinerea; 96 h, read-out: MIC (B), Table 74, Compound B = saturated aliphatic acid, alone or in combination with thyme oil, incubation period of 4 days): 312 µg/mL
- MIC (Botrytis cinerea; 96 h, read-out: MIC (B), Table 76, Compound B = saturated aliphatic acid, alone or in combination with spearmint oil, incubation period of 4 days): 312 µg/mL
- MIC (B) (Botrytis cinerea; Compound B (aliphatic acid) alone, 2-fold dilutions, incubation period of 48 hours): 78.12 µg/mL
- Observed Efficacy, W (%) (Trichoplusia ni): 27.3%
- MIC (Fusarium oxysporum; Fusarium oxysporum, 24 h, read-out: MIC (B), Table 51, Compound B = saturated aliphatic acid, alone or in combination with thyme oil, incubation for 24 hours): 78.1 µg/mL
- MIC (Fusarium oxysporum; Fusarium oxysporum, 24 h, read-out: MIC (B), Table 52, Compound B = saturated aliphatic acid, alone or in combination with garlic oil, incubation for 24 hours): 156 µg/mL
- MIC (Fusarium oxysporum; Fusarium oxysporum, 96 h, read-out: MIC (B), Table 54, Compound B = saturated aliphatic acid, alone or in combination with peppermint oil, incubation for 4 days): 156 µg/mL
- MIC (Fusarium oxysporum; Fusarium oxysporum, 96 h, read-out: MIC (B), Table 58, Compound B = saturated aliphatic acid, alone or in combination with oregano oil, incubation for 4 days): 156 µg/mL

Compound: O=C(O)CCCCCCCO [8-hydroxyoctanoic acid]
- MIC (Sclerotinia sclerotiorum; read-out: MIC (B), Compound B alone, 7 days incubation): 2500 µg/mL
- MIC (Sclerotinia sclerotiorum; read-out: MIC (B), Compound B alone, incubation period of 7 days): 5000 µg/mL
- MIC (Alternaria solani; Alternaria solani, read-out: MIC (B), Compound B alone, 7 days incubation): 2500 µg/mL
- MIC (Fusarium oxysporum; Fusarium oxysporum, 48 h, read-out: MIC (B), Compound B alone, Fusarium oxysporum, 48 hours incubation): 5000 µg/mL
- MIC (Fusarium oxysporum; Fusarium oxysporum, 48 h, read-out: MIC (B), Compound B alone, Fusarium oxysporum, incubation period of 48 hours): 5000 µg/mL

Compound: CCCCCCC=CCC(=O)O [3-Decenoic acid, 3-decenoic acid]
- Observed Efficacy, W (%) (Trichoplusia ni): 0%
- MIC (B) (Fusarium oxysporum; Compound B (aliphatic acid) alone, Fusarium oxysporum, incubation period of 48 hours): 312.5 µg/mL
